Source: the supplement of paper PMC11451515

Experiments:
[1] = tested on: SEM cells; assay: cell viability relative to DMSO control; higher = less cytotoxic; details: 48 h
Procedure, shortened: (§1)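 In 1536-well plates, 5 μl of leukemia cells were seeded per well: 500 cells/well for NOMO1 or SEM and 1000 cells/well for P12-Ichikawa. Each line had first been adapted for at least four passages in each medium. Library compounds in DMSO were pin-dosed at 11 threefold concentrations between 47 μM and 0.79 nM, and CellTiter-Glo One luminescence was read after 48 h at 37°C. Viability is a per-plate percentage relative to DMSO wells, with cell-free wells as background.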

[2] = tested on: NOMO1; assay: as above; details: HPLM + 10% dialyzed FBS, 48 h
Procedure, shortened: as §1

[3] = tested on: P12-Ichikawa; assay: AUC of viability dose-response curve (% viability x log10 dose units); higher = less sensitive; details: 48 h
Procedure, shortened: (§2)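 Medium-adapted leukemia cells in 1536-well plates, at 500 or 1000 cells/well, were incubated for 48 h at 37°C with library compounds in DMSO at 11 threefold doses from 47 μM to 0.79 nM. CellTiter-Glo One luminescence normalised per plate to DMSO and cell-free wells was fitted with a four-parameter log-logistic model over log10 doses. Area under the curve was integrated from this fit by trapezoidal rule, with curves beyond full viability scaled and failed quality-control curves removed.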

[4] = tested on: SEM cells; assay: as above; details: 48 h
Procedure, shortened: as §2

[5] = tested on: NOMO1; assay: as above; details: 48 h
Procedure, shortened: as §2

[6] = HPLM + 10% dialyzed FBS, 0.000781 µM
[7] = HPLM + 10% dialyzed FBS, 0.00234 µM
[8] = HPLM + 10% dialyzed FBS, 0.00702 µM
[9] = HPLM + 10% dialyzed FBS, 0.0211 µM
[10] = HPLM + 10% dialyzed FBS, 0.0632 µM
[11] = HPLM + 10% dialyzed FBS, 0.19 µM
[12] = HPLM + 10% dialyzed FBS, 0.569 µM
[13] = HPLM + 10% dialyzed FBS, 1.71 µM
[14] = HPLM + 10% dialyzed FBS, 5.12 µM
[15] = HPLM + 10% dialyzed FBS, 15.4 µM
[16] = HPLM + 10% dialyzed FBS, 46.1 µM
[17] = RPMI 5 mM glucose + 10% dialyzed FBS

`OC1CCC(CC1)N2\C=N/C3=C(C2=N)C(=C([N]3CC4=CC=CC=C4)C5=CC=CC=C5)C6=CC=CC=C6` (configuration not stated) showed a cell viability [1, 6] of 117%, a cell viability [1, 7] of 123% and a cell viability [1, 8] of 134%. It also gave a cell viability [1, 9] of 116%, a cell viability [1, 10] of 113% and a cell viability [1, 11] of 98.9%. The cell viability [1, 12] was 46.8%, the cell viability [1, 13] was 47.2% and the cell viability [1, 14] was 38.6%. It also gave a cell viability [1, 15] of 39%, a cell viability [1, 16] of 41% and a cell viability ([1]; RPMI 5 mM glucose + 10% FBS, 0.000781 µM) of 110%. For the same compound, the cell viability ([1]; RPMI 5 mM glucose + 10% FBS, 0.00234 µM) was 117%, the cell viability ([1]; RPMI 5 mM glucose + 10% FBS, 0.00702 µM) was 131% and the cell viability ([1]; RPMI 5 mM glucose + 10% FBS, 0.0211 µM) was 108%. It also gave a cell viability ([1]; RPMI 5 mM glucose + 10% FBS, 0.0632 µM) of 102%, a cell viability ([1]; RPMI 5 mM glucose + 10% FBS, 0.19 µM) of 97.6% and a cell viability ([1]; RPMI 5 mM glucose + 10% FBS, 0.569 µM) of 47.4%. For the same compound, the cell viability ([1]; RPMI 5 mM glucose + 10% FBS, 1.71 µM) was 39.4%, the cell viability ([1]; RPMI 5 mM glucose + 10% FBS, 5.12 µM) was 37% and the cell viability ([1]; RPMI 5 mM glucose + 10% FBS, 15.4 µM) was 37.8%. It also gave a cell viability ([1]; RPMI 5 mM glucose + 10% FBS, 46.1 µM) of 24%, a cell viability ([2]; 0.000781 µM) of 115% and a cell viability ([2]; 0.00234 µM) of 133%. For the same compound, the cell viability ([2]; 0.00702 µM) was 121%, the cell viability ([2]; 0.0211 µM) was 144% and the cell viability ([2]; 0.0632 µM) was 142%. For the same compound, the cell viability ([2]; 0.19 µM) was 130%, the cell viability ([2]; 0.569 µM) was 130% and the cell viability ([2]; 1.71 µM) was 93.8%. The cell viability ([2]; 5.12 µM) was 81%, the cell viability ([2]; 15.4 µM) was 74.9% and the cell viability ([2]; 46.1 µM) was 9.01%. For the same compound, the “AUC of viability dose-response curve” value ([3]; HPLM + 10% dialyzed FBS) was 437, the “AUC of viability dose-response curve” value ([3]; RPMI 5 mM glucose + 10% FBS) was 395 and the “AUC of viability dose-response curve” value [3, 17] was 408. The “AUC of viability dose-response curve” value ([4]; HPLM + 10% dialyzed FBS) was 329, the “AUC of viability dose-response curve” value ([4]; RPMI 5 mM glucose + 10% FBS) was 323 and the “AUC of viability dose-response curve” value [4, 17] was 353. For the same compound, the “AUC of viability dose-response curve” value ([5]; HPLM + 10% dialyzed FBS) was 399, the “AUC of viability dose-response curve” value ([5]; RPMI 5 mM glucose + 10% FBS) was 402 and the “AUC of viability dose-response curve” value [5, 17] was 403.

Work on `CC(C)CC(=O)Nc1n[nH]c2c1CN(C(=O)C1CCN(C)CC1)C2(C)C` yielded a cell viability ([2]; 0.000781 µM) of 112%, a cell viability ([2]; 0.00234 µM) of 154% and a cell viability ([2]; 0.00702 µM) of 113%. It also gave a cell viability ([2]; 0.0211 µM) of 131%, a cell viability ([2]; 0.0632 µM) of 85.3% and a cell viability ([2]; 0.19 µM) of 94.5%. For the same compound, the cell viability ([2]; 0.569 µM) was 103%, the cell viability ([2]; 1.71 µM) was 61.4% and the cell viability ([2]; 5.12 µM) was 71.1%. The cell viability ([2]; 15.4 µM) was 18.5%, the cell viability ([2]; 46.1 µM) was 3.76% and the “AUC of viability dose-response curve” value ([3]; HPLM + 10% dialyzed FBS) was 311. For the same compound, the “AUC of viability dose-response curve” value ([3]; RPMI 5 mM glucose + 10% FBS) was 351, the “AUC of viability dose-response curve” value [3, 17] was 345 and the “AUC of viability dose-response curve” value ([4]; HPLM + 10% dialyzed FBS) was 320. The “AUC of viability dose-response curve” value ([4]; RPMI 5 mM glucose + 10% FBS) was 338, the “AUC of viability dose-response curve” value [4, 17] was 338 and the “AUC of viability dose-response curve” value ([5]; HPLM + 10% dialyzed FBS) was 331. For the same compound, the “AUC of viability dose-response curve” value ([5]; RPMI 5 mM glucose + 10% FBS) was 370 and the “AUC of viability dose-response curve” value [5, 17] was 325.

With `OC1=CC(=C(C=C1)\C2=C(O)\C(=O)C3=C(O2)C=C(O)C=C3O)O` the cell viability ([2]; 0.000781 µM) was 121%, the cell viability ([2]; 0.00234 µM) was 118% and the cell viability ([2]; 0.00702 µM) was 138%. It also gave a cell viability ([2]; 0.0211 µM) of 136%, a cell viability ([2]; 0.0632 µM) of 120% and a cell viability ([2]; 0.19 µM) of 137%. For the same compound, the cell viability ([2]; 0.569 µM) was 132%, the cell viability ([2]; 1.71 µM) was 119% and the cell viability ([2]; 5.12 µM) was 112%. The cell viability ([2]; 15.4 µM) was 106%, the cell viability ([2]; 46.1 µM) was 71.5% and the “AUC of viability dose-response curve” value ([3]; HPLM + 10% dialyzed FBS) was 442. The “AUC of viability dose-response curve” value ([3]; RPMI 5 mM glucose + 10% FBS) was 444, the “AUC of viability dose-response curve” value [3, 17] was 443 and the “AUC of viability dose-response curve” value ([4]; HPLM + 10% dialyzed FBS) was 461. For the same compound, the “AUC of viability dose-response curve” value ([4]; RPMI 5 mM glucose + 10% FBS) was 459, the “AUC of viability dose-response curve” value [4, 17] was 465 and the “AUC of viability dose-response curve” value ([5]; HPLM + 10% dialyzed FBS) was 450. The “AUC of viability dose-response curve” value ([5]; RPMI 5 mM glucose + 10% FBS) was 433 and the “AUC of viability dose-response curve” value [5, 17] was 467.

`C[S+](=O)([O-])OCCCCO[S+](C)(=O)[O-]` gave a cell viability [1, 6] of 102%, a cell viability [1, 7] of 119% and a cell viability [1, 8] of 134%. It also gave a cell viability [1, 9] of 124%, a cell viability [1, 10] of 145% and a cell viability [1, 11] of 129%. It also gave a cell viability [1, 12] of 142%, a cell viability [1, 13] of 128% and a cell viability [1, 14] of 109%. For the same compound, the cell viability [1, 15] was 89.6%, the cell viability [1, 16] was 43.1% and the “AUC of viability dose-response curve” value ([3]; HPLM + 10% dialyzed FBS) was 451. The “AUC of viability dose-response curve” value ([3]; RPMI 5 mM glucose + 10% FBS) was 438, the “AUC of viability dose-response curve” value [3, 17] was 450 and the “AUC of viability dose-response curve” value ([4]; HPLM + 10% dialyzed FBS) was 440. For the same compound, the “AUC of viability dose-response curve” value ([4]; RPMI 5 mM glucose + 10% FBS) was 438, the “AUC of viability dose-response curve” value [4, 17] was 436 and the “AUC of viability dose-response curve” value ([5]; HPLM + 10% dialyzed FBS) was 407. For the same compound, the “AUC of viability dose-response curve” value ([5]; RPMI 5 mM glucose + 10% FBS) was 449 and the “AUC of viability dose-response curve” value [5, 17] was 462.

With `FC1=CC2=C3[N](CCN(CC3=C1)C(=O)N4CCCCC4)C=C2C/5=C(C(=O)NC5=O)\C6=CN=C7C=CC=C[N]67` the cell viability [1, 6] was 104%, the cell viability [1, 7] was 109% and the cell viability [1, 8] was 118%. It also gave a cell viability [1, 9] of 57%, a cell viability [1, 10] of 11.5% and a cell viability [1, 11] of 9.31%. The cell viability [1, 12] was 8.55%, the cell viability [1, 13] was 10.7% and the cell viability [1, 14] was 8.69%. The cell viability [1, 15] was 5.56%, the cell viability [1, 16] was 6.04% and the “AUC of viability dose-response curve” value ([3]; HPLM + 10% dialyzed FBS) was 329. The “AUC of viability dose-response curve” value ([3]; RPMI 5 mM glucose + 10% FBS) was 298, the “AUC of viability dose-response curve” value [3, 17] was 367 and the “AUC of viability dose-response curve” value ([4]; HPLM + 10% dialyzed FBS) was 168. For the same compound, the “AUC of viability dose-response curve” value ([4]; RPMI 5 mM glucose + 10% FBS) was 159, the “AUC of viability dose-response curve” value [4, 17] was 159 and the “AUC of viability dose-response curve” value ([5]; HPLM + 10% dialyzed FBS) was 461. The “AUC of viability dose-response curve” value ([5]; RPMI 5 mM glucose + 10% FBS) was 469 and the “AUC of viability dose-response curve” value [5, 17] was 463.
